Data: patent publication US20100267561A1, “HERBICIDAL PYRIDAZINONE DERIVATIVES” (priority 2007, published 2010)

Tests used:
Assay type in all cases: in vivo
[1] = tested on: Italian ryegrass (Lolium multiflorum); assay: Test B pre-/postemergence plant response; settings: for Ryegrass, Italian plant response rating: 8 g ai/ha
Procedure, shortened: (§1)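 Seeds were sown and sprayed preemergence, while plants at 2 to 18 cm (1- to 4-leaf stage) got postemergence sprays. Compounds were formulated in a non-phytotoxic solvent mixture with surfactant. After 13 to 15 days in a greenhouse, injury was rated visually against untreated controls, 0 (no effect) to 100 (complete control).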

[2] = tested on: Russian thistle (Salsola iberica); assay: Test B pre-/postemergence plant response; settings: Preemergence
Procedure, shortened: as §1

[3] = tested on: bermudagrass (Cynodon dactylon); assay: Test B pre-/postemergence plant response; settings: for Bermudagrass plant response rating: 8 g ai/ha
Procedure, shortened: as §1

[4] = tested on: cocklebur (Xanthium strumarium); assay: Test B pre-/postemergence plant response; settings: for Cocklebur plant response rating: 8 g ai/ha
Procedure, shortened: as §1

corn (Zea mays) = assay: Test B pre-/postemergence plant response; settings: for Corn plant response rating: 8 g ai/ha
Procedure, shortened: as §1

[5] = tested on: downy bromegrass (Bromus tectorum); assay: Test B pre-/postemergence plant response; settings: for Bromegrass, Downy plant response rating: 8 g ai/ha
Procedure, shortened: as §1

[6] = tested on: giant foxtail (Setaria faberii); assay: Test B pre-/postemergence plant response; settings: for Foxtail, Giant plant response rating: 8 g ai/ha
Procedure, shortened: as §1

[7] = tested on: velvetleaf (Abutilon theophrasti); assay: Test B pre-/postemergence plant response; settings: for Velvetleaf plant response rating: 8 g ai/ha
Procedure, shortened: as §1

[8] = tested on: woolly cupgrass (Eriochloa villosa); assay: Test B pre-/postemergence plant response
Procedure, shortened: as §1

[9] = tested on: yellow nutsedge (Cyperus esculentus); assay: Test B pre-/postemergence plant response; settings: for Nutsedge, Yellow plant response rating: 8 g ai/ha
Procedure, shortened: as §1

[10] = tested on: barnyardgrass (Echinochloa crus-galli); assay: Test B flooded paddy test plant response
Procedure, shortened: (§2)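 2-leaf plants; pots flooded 3 cm above soil; compound added to paddy water; depth maintained. Greenhouse 13–15 d. Visual rating vs controls, 0 (no effect) to 100 (complete control); dash = no result.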

[11] = tested on: ducksalad (Heteranthera limosa); assay: Test B flooded paddy test plant response; settings: Flood (flooded paddy test), scale 0 to 100, 0 no effect, 100 complete control
Procedure, shortened: as §2

rice (Oryza sativa) = assay: Test B flooded paddy test plant response
Procedure, shortened: as §2

[12] = tested on: umbrella sedge (Cyperus difformis); assay: Test B flooded paddy test plant response
Procedure, shortened: as §2

[13] = Postemergence, 16 g ai/ha, scale 0 to 100
[14] = Postemergence, 31 g ai/ha, scale 0 to 100, 0 no effect, 100 complete control
[15] = Postemergence, 62 g ai/ha, scale 0 to 100, 0 no effect, 100 complete control
[16] = Preemergence, 16 g ai/ha, scale 0 to 100 (0 no effect, 100 complete control)
[17] = Preemergence, 31 g ai/ha, scale 0 to 100 (0 no effect, 100 complete control)
[18] = Preemergence, 62 g ai/ha, scale 0 to 100
[19] = Preemergence, 31 g ai/ha, 0 to 100 scale, 0 no effect, 100 complete control
[20] = Flood (flooded paddy test), 62 g ai/ha, scale 0 to 100, 0 no effect, 100 complete control
[21] = Flood (flooded paddy test), 125 g ai/ha, scale 0 to 100, 0 no effect, 100 complete control
[22] = Flood (flooded paddy test), 250 g ai/ha, scale 0 to 100, 0 no effect, 100 complete control
[23] = Flood, 31 g ai/ha, scale 0 to 100

## Cc1cc(-c2ccc(C(F)(F)F)c(F)c2)nn1-c1c(O)c(C(F)(F)F)nn(C)c1=O [Compound 44]
[1]; postemergence, 0-100 scale
  Ryegrass, Italian plant response rating: 90
[1]; [13]
  Plant response rating, Ryegrass, Italian: 95
[1]; [14]
  Plant response rating, Ryegrass, Italian: 100
[1]; [15]
  Plant response rating, Ryegrass, Italian: 100
[1]; [16]
  Plant response rating, Ryegrass, Italian: 90
[1]; [17]
  Plant response rating, Ryegrass, Italian: 90
[1]; [18]
  Plant response rating, Ryegrass, Italian: 100
[1]; Preemergence, scale 0 to 100
  Ryegrass, Italian plant response rating: 20
[2]; 16 g ai/ha, scale 0 to 100 (0 no effect, 100 complete control)
  Plant response rating, Russian Thistle: 0
[2]; 31 g ai/ha, scale 0 to 100 (0 no effect, 100 complete control)
  Plant response rating, Russian Thistle: 0
[2]; 62 g ai/ha, scale 0 to 100
  Plant response rating, Russian Thistle: 0
[2]; 8 g ai/ha, scale 0 to 100
  Russian Thistle plant response rating: 0
[3]; postemergence, 0-100 scale
  Bermudagrass plant response rating: 65
[3]; [13]
  Plant response rating, Bermudagrass: 90
[3]; [14]
  Plant response rating, Bermudagrass: 95
[3]; [15]
  Plant response rating, Bermudagrass: 100
[3]; Preemergence, scale 0 to 100 (0 no effect, 100 complete control)
  Bermudagrass plant response rating: 0
[3]; [16]
  Plant response rating, Bermudagrass: 0
[3]; [19]
  Plant response rating, Bermudagrass: 0
[3]; [18]
  Plant response rating, Bermudagrass: 0
[4]; postemergence, 0-100 scale
  Cocklebur plant response rating: 0
[4]; [13]
  Plant response rating, Cocklebur: 0
[4]; [14]
  Plant response rating, Cocklebur: 0
[4]; [15]
  Plant response rating, Cocklebur: 0
[4]; [16]
  Plant response rating, Cocklebur: 0
[4]; [19]
  Plant response rating, Cocklebur: 0
[4]; [18]
  Plant response rating, Cocklebur: 0
[4]; Preemergence, scale 0 to 100
  Cocklebur plant response rating: 0
Corn (Zea mays); postemergence, 0-100 scale
  Corn plant response rating: 85
Corn (Zea mays); [13]
  Plant response rating, Corn: 95
Corn (Zea mays); [14]
  Plant response rating, Corn: 95
Corn (Zea mays); [15]
  Plant response rating, Corn: 95
Corn (Zea mays); [16]
  Plant response rating, Corn: 55
Corn (Zea mays); [19]
  Plant response rating, Corn: 65
Corn (Zea mays); [18]
  Plant response rating, Corn: 85
Corn (Zea mays); Preemergence, scale 0 to 100
  Corn plant response rating: 0
[5]; postemergence, 0-100 scale
  Bromegrass, Downy plant response rating: 40
[5]; [13]
  Plant response rating, Bromegrass, Downy: 60
[5]; [14]
  Plant response rating, Bromegrass, Downy: 70
[5]; [15]
  Plant response rating, Bromegrass, Downy: 90
[5]; [16]
  Plant response rating, Bromegrass, Downy: 20
[5]; [19]
  Plant response rating, Bromegrass, Downy: 60
[5]; [18]
  Plant response rating, Bromegrass, Downy: 85
[5]; Preemergence, scale 0 to 100
  Bromegrass, Downy plant response rating: 0
[6]; postemergence, 0-100 scale
  Foxtail, Giant plant response rating: 95
[6]; [13]
  Plant response rating, Foxtail, Giant: 98
[6]; [14]
  Plant response rating, Foxtail, Giant: 100
[6]; [15]
  Plant response rating, Foxtail, Giant: 100
[6]; [16]
  Plant response rating, Foxtail, Giant: 0
[6]; [19]
  Plant response rating, Foxtail, Giant: 0
[6]; [18]
  Plant response rating, Foxtail, Giant: 0
[6]; Preemergence, scale 0 to 100
  Foxtail, Giant plant response rating: 0
[7]; postemergence, 0-100 scale
  Velvetleaf plant response rating: 0
[7]; [13]
  Plant response rating, Velvetleaf: 0
[7]; [15]
  Plant response rating, Velvetleaf: 0
[7]; [16]
  Plant response rating, Velvetleaf: 0
[7]; [17]
  Plant response rating, Velvetleaf: 0
[7]; Preemergence, 62 g ai/ha, 0 to 100 scale, 0 no effect, 100 complete control
  Plant response rating, Velvetleaf: 0
[7]; Preemergence, scale 0 to 100
  Velvetleaf plant response rating: 0
[8]; 8 g ai/ha, postemergence, 0-100 scale
  Cupgrass, Woolly plant response rating: 98
[8]; [13]
  Plant response rating, Cupgrass, Woolly: 98
[8]; [14]
  Plant response rating, Cupgrass, Woolly: 100
[8]; [15]
  Plant response rating, Cupgrass, Woolly: 100
[8]; [16]
  Plant response rating, Cupgrass, Woolly: 0
[8]; [19]
  Plant response rating, Cupgrass, Woolly: 0
[8]; [18]
  Plant response rating, Cupgrass, Woolly: 100
[9]; postemergence, 0-100 scale
  Nutsedge, Yellow plant response rating: 0
[9]; [13]
  Plant response rating, Nutsedge, Yellow: 0
[9]; [14]
  Plant response rating, Nutsedge, Yellow: 0
[9]; [15]
  Plant response rating, Nutsedge, Yellow: 0
[9]; [16]
  Plant response rating, Nutsedge, Yellow: 0
[9]; [17]
  Plant response rating, Nutsedge, Yellow: 0
[9]; [18]
  Plant response rating, Nutsedge, Yellow: 0
[9]; Preemergence, scale 0 to 100
  Nutsedge, Yellow plant response rating: 0
[10]; [20]
  Plant response rating, Barnyardgrass: 0
[10]; [21]
  Plant response rating, Barnyardgrass: 30
[10]; [22]
  Plant response rating, Barnyardgrass: 50
[10]; [23]
  Plant response rating, Barnyardgrass: 0
[11]; 62 g ai/ha
  Plant response rating, Ducksalad: 0
[11]; 125 g ai/ha
  Plant response rating, Ducksalad: 70
[11]; 250 g ai/ha
  Plant response rating, Ducksalad: 70
Rice (Oryza sativa); [20]
  Plant response rating, Rice: 15
Rice (Oryza sativa); [21]
  Plant response rating, Rice: 20
Rice (Oryza sativa); [22]
  Plant response rating, Rice: 40
Rice (Oryza sativa); [23]
  Plant response rating, Rice: 0
[12]; [20]
  Plant response rating, Sedge, Umbrella: 0
[12]; [21]
  Plant response rating, Sedge, Umbrella: 20
[12]; [22]
  Plant response rating, Sedge, Umbrella: 30
[12]; [23]
  Plant response rating, Sedge, Umbrella: 0
